# In US8957076B2, “Wound healing” (Systagenix Wound Management (US), Inc., priority 2004, dated 2015):
# System: diabetic wounds
# Test: Closure of full thickness flank skin wounds in diabetic mice, topical treatment
# Format: in vivo, mice (C57BLKs/Bom db/db)
# Conditions: for % wound area remaining relative to day 0 (mean ± standard error): six wounds
# Protocol: Female diabetic mice (C57BLKs/Bom db/db; B&M, Denmark) aged approximately 16 weeks will be used in this study. On arrival mice were housed in groups of 5 to 10 according to Home Office regulations. On the first day of the study period, animals were housed in individual cages (cage dimensions 35×15×15 cm with sawdust bedding, changed twice weekly), in an environment maintained at an ambient temperature of 23° C. with 12-hour light/dark cycles. They were provided with food (Standard Rodent Diet) and water ad libitum. To acclimatise the animals to their surroundings, prior to experimentation, they were housed for a minimum of one week without disturbance, other than to refresh their bedding and to replenish their food and water provisions. Following wounding, animals were monitored until they had fully recovered from the procedure and then housed under individual conditions for the remainder of the study period. All animal procedures were carried out in a Home Office licensed establishment in accordance with Home Office Licence procedures. Animals were anaesthetised (halothane and air) and shaved. A single standardised full thickness wound (7.5 mm×7.5 mm) was created in the flank skin of each experimental animal. Wounds received, saline [50 μl], vehicle [50 μl pH 4.0 vehicle], 1 μg of p38 MAP kinase inhibitor [in 50 μl pH 4.0 vehicle] or 10 μg of p38 MAP kinase inhibitor [in 50 μl pH 4.0 vehicle]. The p38 MAP kinase inhibitor had the following formula: All wounds were secondarily dressed with a 1.5×1.5 cm pad of RELEASE dressing (Johnson & Johnson Wound Management). The RELEASE pad was held in place using a circumferential band of the occlusive film dressing Bioclusive (Johnson & Johnson Wound Management). Animals were re-anaesthetized and treatments re-applied on days 2, 4, 7, 9 and 11-post wounding. Immediately after wounding and subsequently on days 2, 4, 7, 9, 11 and 14 all wounds were digitally photographed together with a calibration/identity plate. On day 14 of the study animals will be euthanised. Image Pro image analysis software (version 4.1.0.0, Media Cybernetics, USA) was used to calculate wound closure from wound images in each of the experimental groups over time. Non-parametric analysis (Kruskal Wallis—Multivariate Analysis followed by ad hoc two sample Mann Whitney U-test analysis) will be used to test the significance of any inter-group differences in wound closure.
smiles,measurement,setting,value
CC(=O)N1CCN(c2c(-c3ccncc3)c(-c3ccc(F)cc3)c(C#N)n2C)CC1 [p38 MAP kinase inhibitor],% wound area remaining relative to day 0 (mean ± standard error),"1.0 μg per wound in 50 μl pH 4.0 vehicle, day 2 post-wounding",86.15 ± 6.63%
same,% wound area remaining relative to day 0 (mean ± standard error),"1.0 μg per wound in 50 μl pH 4.0 vehicle, day 4 post-wounding",66.32 ± 6.58%
same,% wound area remaining relative to day 0 (mean ± standard error),"1.0 μg per wound in 50 μl pH 4.0 vehicle, day 7 post-wounding",38.65 ± 2.62%
same,% wound area remaining relative to day 0 (mean ± standard error),"1.0 μg per wound in 50 μl pH 4.0 vehicle, day 9 post-wounding",18.87 ± 4.44%
same,% wound area remaining relative to day 0 (mean ± standard error),"1.0 μg per wound in 50 μl pH 4.0 vehicle, day 11 post-wounding",6.03 ± 2.17%
same,% wound area remaining relative to day 0 (mean ± standard error),"10.0 μg per wound in 50 μl pH 4.0 vehicle, day 2 post-wounding",75.48 ± 6.32%
same,% wound area remaining relative to day 0 (mean ± standard error),"10.0 μg per wound in 50 μl pH 4.0 vehicle, day 4 post-wounding",58.34 ± 6.49%
same,% wound area remaining relative to day 0 (mean ± standard error),"10.0 μg per wound in 50 μl pH 4.0 vehicle, day 7 post-wounding",29.80 ± 4.66%
same,% wound area remaining relative to day 0 (mean ± standard error),"10.0 μg per wound in 50 μl pH 4.0 vehicle, day 9 post-wounding",13.31 ± 1.64%
same,% wound area remaining relative to day 0 (mean ± standard error),"10.0 μg per wound in 50 μl pH 4.0 vehicle, day 11 post-wounding",3.34 ± 0.96%
same,closure compared to saline treatment,"10.0 μg, day 2, 7, 11 p=0.055, day 9 p=0.025 (statistically significant)",noticeably more rapid
same,wound size compared to citrate treated wounds,"10.0 μg, day 9 and day 11 assessment points",statistically smaller
same,closure of diabetic wounds compared to treatment with the vehicle,"versus Citrate Buffer, pH 4.0, effect most apparent for the highest dose",appeared to accelerate the closure of diabetic wounds
